# Key:
# [1] = target: Serine/threonine-protein kinase pim-2 (Homo sapiens, UniProt Q9P1W9); experiment: Selectivity interaction (Kinase panel (Z-LYTE Assay)) EUB0001632a PIM2; conditions: at 10 µM
# [2] = target: T1, Serine/threonine-protein kinase LATS1 (Homo sapiens) (UniProt O95835); experiment: Selectivity interaction (KinomeScan (DiscoverX)) EUB0001049a LATS1; conditions: at 1 µM
# T1 sequence (whole entry): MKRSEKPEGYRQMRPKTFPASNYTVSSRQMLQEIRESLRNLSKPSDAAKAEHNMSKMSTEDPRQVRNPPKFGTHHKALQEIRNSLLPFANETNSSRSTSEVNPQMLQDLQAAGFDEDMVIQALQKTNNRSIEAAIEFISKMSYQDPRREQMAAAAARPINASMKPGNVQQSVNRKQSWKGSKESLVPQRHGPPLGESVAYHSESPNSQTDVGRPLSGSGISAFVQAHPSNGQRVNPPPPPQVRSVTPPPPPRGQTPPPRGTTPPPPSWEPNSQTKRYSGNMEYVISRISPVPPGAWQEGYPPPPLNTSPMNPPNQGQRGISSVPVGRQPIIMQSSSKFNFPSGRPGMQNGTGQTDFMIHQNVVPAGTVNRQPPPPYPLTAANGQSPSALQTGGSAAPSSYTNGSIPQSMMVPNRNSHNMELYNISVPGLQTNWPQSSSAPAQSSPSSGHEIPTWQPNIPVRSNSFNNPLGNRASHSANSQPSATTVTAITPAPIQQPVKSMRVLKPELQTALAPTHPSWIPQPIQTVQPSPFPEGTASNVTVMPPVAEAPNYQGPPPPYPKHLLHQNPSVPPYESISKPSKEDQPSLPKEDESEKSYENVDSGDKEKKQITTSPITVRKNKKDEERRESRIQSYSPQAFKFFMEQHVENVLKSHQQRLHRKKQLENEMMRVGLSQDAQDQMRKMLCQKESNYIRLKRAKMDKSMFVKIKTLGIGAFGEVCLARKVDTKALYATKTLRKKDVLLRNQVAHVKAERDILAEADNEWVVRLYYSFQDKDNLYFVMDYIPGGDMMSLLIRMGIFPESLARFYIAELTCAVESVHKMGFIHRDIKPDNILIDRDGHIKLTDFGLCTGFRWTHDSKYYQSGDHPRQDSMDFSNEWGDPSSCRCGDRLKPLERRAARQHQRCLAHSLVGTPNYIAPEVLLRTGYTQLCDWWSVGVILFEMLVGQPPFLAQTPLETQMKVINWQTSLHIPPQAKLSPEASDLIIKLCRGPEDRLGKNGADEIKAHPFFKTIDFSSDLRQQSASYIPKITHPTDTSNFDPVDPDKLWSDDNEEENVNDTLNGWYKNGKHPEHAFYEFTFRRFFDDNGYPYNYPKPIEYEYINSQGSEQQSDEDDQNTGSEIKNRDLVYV
# [3] = target: Cyclin-dependent kinase 18 (Homo sapiens) (UniProt Q07002); experiment: Selectivity interaction (KinomeScan (DiscoverX)) EUB0000618a CDK18; conditions: at 10 µM
# Chain of Cyclin-dependent kinase 18 (Homo sapiens) (Q07002 whole entry): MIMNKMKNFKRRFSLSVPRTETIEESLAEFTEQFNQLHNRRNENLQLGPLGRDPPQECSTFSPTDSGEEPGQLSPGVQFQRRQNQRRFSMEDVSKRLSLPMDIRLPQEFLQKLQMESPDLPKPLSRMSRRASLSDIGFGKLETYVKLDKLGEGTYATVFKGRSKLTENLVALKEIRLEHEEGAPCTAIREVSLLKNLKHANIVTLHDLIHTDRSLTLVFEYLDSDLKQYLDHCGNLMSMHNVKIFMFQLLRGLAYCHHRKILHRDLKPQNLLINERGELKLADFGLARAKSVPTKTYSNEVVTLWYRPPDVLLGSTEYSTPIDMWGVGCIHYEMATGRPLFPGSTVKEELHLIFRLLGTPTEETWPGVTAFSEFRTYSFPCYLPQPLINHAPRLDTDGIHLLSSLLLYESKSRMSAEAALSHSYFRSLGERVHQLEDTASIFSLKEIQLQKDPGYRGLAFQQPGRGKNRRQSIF
# [4] = target: T2, Hormonally up-regulated neu tumor-associated kinase (Homo sapiens) (UniProt P57058); experiment: Selectivity interaction (KinomeScan (DiscoverX)) EUB0000655a HUNK; conditions: at 10 µM
# T2 sequence (whole entry): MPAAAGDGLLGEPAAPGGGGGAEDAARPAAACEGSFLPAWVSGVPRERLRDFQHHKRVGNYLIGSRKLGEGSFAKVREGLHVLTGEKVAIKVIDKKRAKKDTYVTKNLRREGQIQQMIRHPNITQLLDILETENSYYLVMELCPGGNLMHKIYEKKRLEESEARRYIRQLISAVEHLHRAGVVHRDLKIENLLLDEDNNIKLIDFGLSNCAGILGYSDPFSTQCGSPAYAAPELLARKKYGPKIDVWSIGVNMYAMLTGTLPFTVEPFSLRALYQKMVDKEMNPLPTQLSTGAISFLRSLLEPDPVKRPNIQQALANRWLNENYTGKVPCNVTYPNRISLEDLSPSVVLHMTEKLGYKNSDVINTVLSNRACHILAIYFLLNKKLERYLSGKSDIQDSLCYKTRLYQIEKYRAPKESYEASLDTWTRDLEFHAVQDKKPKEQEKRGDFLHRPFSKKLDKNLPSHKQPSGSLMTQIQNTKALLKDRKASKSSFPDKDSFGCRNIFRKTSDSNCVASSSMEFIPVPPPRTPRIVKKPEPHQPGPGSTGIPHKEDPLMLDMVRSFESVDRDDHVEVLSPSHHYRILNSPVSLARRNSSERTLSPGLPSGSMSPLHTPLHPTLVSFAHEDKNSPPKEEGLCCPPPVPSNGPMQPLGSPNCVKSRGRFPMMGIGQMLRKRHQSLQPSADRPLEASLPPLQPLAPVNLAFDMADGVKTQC
# [5] = target: BDNF/NT-3 growth factors receptor (Homo sapiens) (UniProt Q16620); conditions: at 10 µM
# Chain of BDNF/NT-3 growth factors receptor (Homo sapiens) (Q16620 32-822 limits assumed): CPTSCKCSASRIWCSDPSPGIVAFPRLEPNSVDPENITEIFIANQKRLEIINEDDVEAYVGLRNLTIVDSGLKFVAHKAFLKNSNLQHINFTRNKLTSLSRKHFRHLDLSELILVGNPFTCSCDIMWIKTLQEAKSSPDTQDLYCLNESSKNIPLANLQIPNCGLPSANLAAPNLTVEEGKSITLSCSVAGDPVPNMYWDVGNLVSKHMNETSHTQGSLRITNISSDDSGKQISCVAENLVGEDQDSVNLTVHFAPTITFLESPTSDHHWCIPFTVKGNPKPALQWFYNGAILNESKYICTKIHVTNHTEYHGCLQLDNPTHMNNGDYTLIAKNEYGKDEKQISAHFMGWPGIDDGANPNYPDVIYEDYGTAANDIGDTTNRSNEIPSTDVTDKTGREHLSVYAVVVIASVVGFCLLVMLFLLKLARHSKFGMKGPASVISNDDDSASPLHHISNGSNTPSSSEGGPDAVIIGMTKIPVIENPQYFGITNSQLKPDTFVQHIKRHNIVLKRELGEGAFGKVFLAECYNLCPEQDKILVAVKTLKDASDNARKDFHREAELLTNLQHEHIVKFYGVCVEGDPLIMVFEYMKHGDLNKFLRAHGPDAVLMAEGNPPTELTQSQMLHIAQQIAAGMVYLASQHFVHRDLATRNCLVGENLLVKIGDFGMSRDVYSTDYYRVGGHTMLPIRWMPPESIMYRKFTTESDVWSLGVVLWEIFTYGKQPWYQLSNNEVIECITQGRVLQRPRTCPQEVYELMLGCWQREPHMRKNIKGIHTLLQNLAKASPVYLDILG
# [6] = target: T3, Serine/threonine-protein kinase MAK (Homo sapiens) (UniProt P20794); experiment: Selectivity interaction (Ambit KINOMEscan and KiNATiv profiling in Jurkat cells) EUB0000090b MAK; type: cell-based; conditions: at 1 µM
# T3 sequence (whole entry): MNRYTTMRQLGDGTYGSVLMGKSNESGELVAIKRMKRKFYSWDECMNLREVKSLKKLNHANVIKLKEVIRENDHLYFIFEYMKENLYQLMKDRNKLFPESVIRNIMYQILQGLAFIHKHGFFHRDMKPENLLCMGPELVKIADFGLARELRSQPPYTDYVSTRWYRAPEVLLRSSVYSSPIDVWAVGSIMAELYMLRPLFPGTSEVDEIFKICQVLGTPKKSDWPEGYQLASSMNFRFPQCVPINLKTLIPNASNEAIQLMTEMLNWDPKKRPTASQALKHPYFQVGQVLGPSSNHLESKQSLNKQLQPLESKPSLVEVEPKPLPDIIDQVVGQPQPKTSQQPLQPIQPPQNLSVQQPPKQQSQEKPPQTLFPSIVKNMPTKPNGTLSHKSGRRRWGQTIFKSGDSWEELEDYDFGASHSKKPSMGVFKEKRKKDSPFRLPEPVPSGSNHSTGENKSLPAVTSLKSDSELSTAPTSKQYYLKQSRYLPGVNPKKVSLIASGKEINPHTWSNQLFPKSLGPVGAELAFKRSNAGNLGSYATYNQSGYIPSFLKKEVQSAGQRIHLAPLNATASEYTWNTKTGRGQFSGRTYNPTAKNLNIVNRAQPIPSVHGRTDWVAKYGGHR
# Chain of Serine/threonine-protein kinase pim-2 (Q9P1W9 whole entry, looked up): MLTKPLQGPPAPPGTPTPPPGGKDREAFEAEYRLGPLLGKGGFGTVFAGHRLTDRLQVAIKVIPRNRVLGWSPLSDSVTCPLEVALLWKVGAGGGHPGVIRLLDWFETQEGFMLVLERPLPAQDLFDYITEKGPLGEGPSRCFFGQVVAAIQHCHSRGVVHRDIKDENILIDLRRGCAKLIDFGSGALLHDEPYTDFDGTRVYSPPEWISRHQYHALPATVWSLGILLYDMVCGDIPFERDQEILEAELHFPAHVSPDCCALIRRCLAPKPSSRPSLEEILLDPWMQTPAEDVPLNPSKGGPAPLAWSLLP
compound,measurement,setting,value
Cn1cc(-n2cnc3c(NCc4nc5cc(Cl)c(Cl)cc5[nH]4)nc(N4CCOCC4)nc32)cn1,% of control,[1],0.824%
COc1cc(Nc2nc(C)cc(-c3cnn4nc(OC)ccc34)n2)cc(C(F)(F)F)c1,% of control,[2],100%
O[C@H]1CC[C@H](Nc2ncc3nc(Nc4c(F)cc(F)cc4F)n([C@H]4CCOC4)c3n2)CC1,% of control,[3],100%
CN(C)CCOc1ccc(-c2nc(-c3ccncc3)c(-c3ccc4c(c3)CC/C4=N\O)[nH]2)cc1,% of control,[4],84%
CCN(CC)CCCCNc1ncc2cc(-c3cc(OC)cc(OC)c3)c(NC(=O)NC(C)(C)C)nc2n1,% of control,[5],100%
CN(C)C/C=C/C(=O)Nc1ccc(C(=O)N2CCCC(Nc3ncc(Cl)c(-c4c[nH]c5ccccc45)n3)C2)cc1 (stereo unspecified),% of control,[6],63%

# From ChEMBL document CHEMBL5465560, “Selectivity Literature for EUbOPEN Chemogenomic Library” (2024)
